Data published in PMC6749418, “SAR by Space: Enriching Hit Sets from the Chemical Space” (Molecules, 2019).
Read-outs that look alike come from different tables or passages of the source.

Legend:
bromodomain 1 of BRD4 = test system: T1, bromodomain 1 of BRD4; assay: Thermal shift assay (TSA) with recombinant, truncated, His-tagged bromodomain 1 of BRD4; assay type: binding; details: 1% DMSO, 4 μM protein; for ΔTm (°C) at 10 μM: compound at 10 μM; for ΔTm (°C) at 20 μM: compound at 20 μM; for ΔTm (°C) at 40 μM: compound at 40 μM
T1 construct: made in house
Protocol: The compounds were synthesized according to the standard protocols for typical parallel synthesis transformations, including amide/sulfonamide coupling, reductive amination, urea synthesis, arylation/alkylation, etc. The synthesis was completed in a three-week period and all the 32 compounds could actually be synthesized. The products obtained were subjected to thermal shift assay (TSA) using recombinant, truncated, His-tagged bromodomain 1 of BRD4 [28] at 40, 20, and 10 μM (Figure 4). The hit selection criteria followed those described in our previous publication:|ΔTm| ≥ |ΔTm,av| + 3|σ(ΔTm)|(1) |ΔTm| ≥ 2|σ(Tm,DMSO)|(2) where ΔTm—thermal shift caused by the compound; ΔTm,av—mean thermal shift value within the plate; σ(ΔTm)—standard deviation of the thermal shift values within the plate; σ(Tm,DMSO)—standard deviation of the melting temperature values obtained for the control samples.
All tested compounds were obtained from Enamine Ltd. (Kyiv, Ukraine). Stock solutions of the tested compounds were prepared in 100% DMSO and were stored at −20 °C until use. The bromodomain 1 of BRD4 was expressed using pNIC28-Bsa4 plasmid vector with an insert representing domain 1 of BRD4 (44–168 AA, sequence entry O60885.1 in UniProtKB Database), N-terminus His6-tag and 16-amino acid linker.
All thermal shift assay (TSA) experiments with BRD4 protein were performed using ViiA™7 real-time PCR System equipped with 384-well heat block (Applied Biosystems, Waltham, MA, USA). General TSA methodology was adopted from the literature and experimentally modified in order to optimize conditions for measuring BRD4 melting temperature shifts upon interaction with small molecules. The optimal buffer composition for the TSA procedure was determined as described previously. Buffer consisting of 50 mM Phosphate-Na, 100 mM NaCl, pH = 7.5 was selected for BRD4 screening in this study. Purified BRD4 protein was pre-mixed with SYPRO Orange dye (Thermo Fischer Scientific, Cat. S6650, 5000x stock, Waltham, MA, USA) to prepare a master mix at 4 μM protein and 6× dye concentrations. Tested compounds were added to the protein-dye master mix at 40, 20, or 10 μM at 1% final DMSO concentration and incubated at 4 °C for 1 h in MicroAmp® optical 384-well reaction plates (ThermoFisher, Cat. 4309849, Waltham, MA, USA) sealed with optical sealing film (ThermalSeal RT2, Excel Scientific, Cat. TS-RT2, Victorville, CA, USA). The volumes of all reaction mixtures were 10 µL ([…]). The reaction plates were then kept at ambient temperature (22–24 °C) for an additional 15 min to ensure protein-compound interactions. Thermal scanning was performed by raising the temperature to 40 °C at 1.6 °C/min without signal detection followed by 40 °C to 90 °C temperature ramp at 0.05 °C/s with constant fluorescence intensity reading at 1-sec intervals using EX470/EM623 nm filter set.
Primary screening of the whole test set of 49 compounds was carried out in singletons. The raw data of dye fluorescence intensity change upon protein melt were exported using the ViiA7 RUO software (Applied Biosystems/Thermo Fischer Scientific). Further data visualization, curve fitting, melting temperature calculations on the raw fluorescence data were performed using custom-made Microsoft Excel scripts. The peak of the first derivative for the fluorescence curve was used to define melting temperature (Tm). Averaged Tm values for the control wells containing only the protein, dye and 1% DMSO were used as a reference point to determine melting temperature shifts (ΔTm).

BRD4 (BD1+BD2) = molecular target: T2, BRD4 (BD1+BD2) (Homo sapiens, UniProt O60885); assay: BRD4 (BD1+BD2) TR-FRET assay, IC50 measurement; assay type: biochemical; details: average from three independent experiments
T2 construct: BRD4 (BD1+BD2) TR-FRET assay kit from BPS Bioscience; purchased BPS Bioscience
Protocol: Dose-response curves were built for these compounds, and for 5 of them, IC50 values were determined in TR-FRET assay as an average from three independent experiments (Table 1). Comparing the resulting hit molecules with the corresponding initial queries, one can see considerable structural differences. […] The relatively high FTrees similarity explains why they were not missed in the REAL Space search: The molecules still have very similar pharmacophoric properties in a similar arrangement. […] This is exemplary shown in Figure 7 for compound 20 and its respective query molecule 15. The shift of the nitrogen atom to the β position of the pyridine ring, as well as the different linker length, led to a completely flipped binding mode. It is also important to stress that the starting points of this study which led to the hits (compounds 19–22) had no significant activity against BRD4 in the functional (TR-FRET) assay; they were identified only in the binding assay (TSA).
All TR-FRET assays and IC50 measurements were performed using BRD4 (BD1+BD2) TR-FRET assay kit from BPS Bioscience (www.bpsbioscience.com) following the standard procedure.

BRD4 = details: cited from earlier work
[1] = investigational BRD4 inhibitors, Figure 1

| SMILES | IC50 (BRD4 (BD1+BD2)) [µM] | ΔTm (°C) at 10 μM (bromodomain 1 of BRD4) [°C] | ΔTm (°C) at 20 μM (bromodomain 1 of BRD4) [°C] | ΔTm (°C) at 40 μM (bromodomain 1 of BRD4) [°C] | IC50 (BRD4; [1]) [µM] | IC50 (BRD4; known BRD4 inhibitors, Figure 6) [µM] | inhibition at 10 μM (BRD4; 10 μM, known BRD4 inhibitors, Figure 6) |
| --- | --- | --- | --- | --- | --- | --- | --- |
| CCS(=O)(=O)Nc1ccc(Oc2ccc(F)cc2F)c(-c2cn(C)c(=O)c3[nH]ccc23)c1 [mivebresib, Mivebresib] | – | – | – | – | 0.001 to 0.002 | – | – |
| O=C1Nc2ccc(NS(=O)(=O)C3CCCCC3)cc2C12CCC2 [compound 31] | – | – | – | – | – | < 0.15 | – |
| O=C1CCc2cc(NC(=O)Nc3ccc(C(F)(F)F)cc3)ccc2N1 [compound 32] | – | – | – | – | – | – | up to 92% |
| Cc1noc2c1-c1ccccc1C(c1ccc(Cl)cc1)=N[C@H]2CC(N)=O [CPI-0610] | – | – | – | – | 0.018 | – | – |
| COc1nnc2ccc(N3CCC(c4ccc(OCCN5CCN(C)C(=O)[C@H]5C)cc4)CC3)nn12 [AZD5153] | – | – | – | – | 0.005 | – | – |

Continued, in another order:

| IC50 (BRD4 (BD1+BD2)) [µM] | SMILES | ΔTm (°C) at 10 μM (bromodomain 1 of BRD4) [°C] | ΔTm (°C) at 20 μM (bromodomain 1 of BRD4) [°C] | ΔTm (°C) at 40 μM (bromodomain 1 of BRD4) [°C] | IC50 (BRD4; [1]) [µM] | IC50 (BRD4; known BRD4 inhibitors, Figure 6) [µM] | inhibition at 10 μM (BRD4; 10 μM, known BRD4 inhibitors, Figure 6) |
| --- | --- | --- | --- | --- | --- | --- | --- |
| 68.2 | CC(C)(CNc1ccc2nnc(C(F)(F)F)n2n1)c1cccnc1 [C00007] | 0.34 ± 0.19 | 0.78 ± 0.14 | 1.56 ± 0.05 | – | – | – |
| 26.4 | CC1CC(=O)N(C)c2ccc(NC(=O)NCc3nc(N(C)C)no3)cc21 (stereo not shown) [C00004] | 0.30 ± 0.10 | 0.72 ± 0.41 | 1.52 ± 0.59 | – | – | – |
| 141 | CCC1Oc2cc(C(C)NC(=O)Cc3c(C)nc4[nH][nH]c(=O)c4c3C)ccc2NC1=O (stereo not shown) [C00009] | 0.29 ± 0.01 | 0.44 ± 0.06 | 0.53 ± 0.25 | – | – | – |
| 44.6 | CC(C)(C)c1nnc2ccc(NCC(C)(C)c3cccnc3)nn12 [C00006] | 0.34 ± 0.13 | 0.98 ± 0.22 | 1.33 ± 0.17 | – | – | – |
| 10.7 | CC1(C)C(=O)Nc2ccc(C(=O)Nc3cc(Cl)c(O)cc3F)cc21 [C00002] | 0.31 ± 0.05 | 0.39 ± 0.08 | 0.71 ± 0.01 | – | – | – |
